Experiment [1] deals with HDAC6. Further details: method as in Fan, Huang, Liou, & Yang, 2018. Conditions: ref Fan, Huang, Liou, & Yang, 2018; cited from earlier work.
Experiment [2] relates to HDAC 1–11. Briefly: HDAC enzymatic assay panel (IC50 heat maps). Type of experiment: biochemical. Conditions: HDAC 1–11, recombinant human enzymes. As to the method:
Data are expressed as mean ± SEM.
The percentages of enzyme activity (relative to DMSO controls) and IC50 values were calculated using the GraphPad Prism 4 program based on a sigmoidal dose-response equation.

We go through two molecules from paper PMC6974726, “Acetylation changes tau interactome to degrade tau in Alzheimer’s disease animal and organoid models” (Aging Cell, 2019).

With `O=C(NO)c1ccc(CNc2cccc3cccnc23)cc1` [MPT0G211], in experiment [1], the “acetylation of Hsp90” value is “increased” and the “ubiquitination of phosphorylated tau” value was “increased”. Consider `Cc1[nH]c2ccccc2c1CCNCc1ccc(/C=C/C(=O)NO)cc1` [panobinostat], for which, in experiment [2], the “selectivity among HDAC isoforms (heat maps of IC50 values)” value is “no selectivity among HDAC isoforms”.
